Here are results for 37 compounds from patent US8937065B2, “Compositions and methods for modulating a kinase” (Clevexel Pharma, priority 2011, dated 2015).

Like-named read-outs stand apart in the source and are kept apart here.

Experiment [1] concerns JAK3 pathway. In words: Cell based JAK3 pathway inhibition (STAT6-bla RA1 cells, IL-4 activated). The settings on record: for Emax: cell based JAK3 pathway inhibition, maximal inhibition, read-out: Max % Inh; for IC50: STAT6-bla RA1 cells, IL-4 at EC80. The method, then: 32 μL of the cell suspension (25,000 cells) was added to each well of a 384-well TC-Treated assay plate. Cells in Assay Media were incubated for 16-24 hours in the plate at 37° C./5% CO2 in a humidified incubator. 4 μL of a 10× serial dilution of a compound of the invention was added to appropriate wells of the plate and pre-incubated at 37° C./5% CO2 in a humidified incubator with cells for 30 minutes. 4 μL of 10× control activator IL-4 at the predetermined EC80 concentration was added to wells containing the compound of the invention. The plate was incubated for 5 hours at 37° C./5% CO2 in a humidified incubator. 8 μL of 1 μM Substrate Loading Solution was added to each well and the plate was incubated for 2 hours at room temperature. The plate was read on a fluorescence plate reader.

Experiment [2] concerns the target T1, JAK3 (Homo sapiens, UniProt P52333).
T1 construct: purchased Invitrogen, Madison, Wis
T1 sequence (P52333 1-1124): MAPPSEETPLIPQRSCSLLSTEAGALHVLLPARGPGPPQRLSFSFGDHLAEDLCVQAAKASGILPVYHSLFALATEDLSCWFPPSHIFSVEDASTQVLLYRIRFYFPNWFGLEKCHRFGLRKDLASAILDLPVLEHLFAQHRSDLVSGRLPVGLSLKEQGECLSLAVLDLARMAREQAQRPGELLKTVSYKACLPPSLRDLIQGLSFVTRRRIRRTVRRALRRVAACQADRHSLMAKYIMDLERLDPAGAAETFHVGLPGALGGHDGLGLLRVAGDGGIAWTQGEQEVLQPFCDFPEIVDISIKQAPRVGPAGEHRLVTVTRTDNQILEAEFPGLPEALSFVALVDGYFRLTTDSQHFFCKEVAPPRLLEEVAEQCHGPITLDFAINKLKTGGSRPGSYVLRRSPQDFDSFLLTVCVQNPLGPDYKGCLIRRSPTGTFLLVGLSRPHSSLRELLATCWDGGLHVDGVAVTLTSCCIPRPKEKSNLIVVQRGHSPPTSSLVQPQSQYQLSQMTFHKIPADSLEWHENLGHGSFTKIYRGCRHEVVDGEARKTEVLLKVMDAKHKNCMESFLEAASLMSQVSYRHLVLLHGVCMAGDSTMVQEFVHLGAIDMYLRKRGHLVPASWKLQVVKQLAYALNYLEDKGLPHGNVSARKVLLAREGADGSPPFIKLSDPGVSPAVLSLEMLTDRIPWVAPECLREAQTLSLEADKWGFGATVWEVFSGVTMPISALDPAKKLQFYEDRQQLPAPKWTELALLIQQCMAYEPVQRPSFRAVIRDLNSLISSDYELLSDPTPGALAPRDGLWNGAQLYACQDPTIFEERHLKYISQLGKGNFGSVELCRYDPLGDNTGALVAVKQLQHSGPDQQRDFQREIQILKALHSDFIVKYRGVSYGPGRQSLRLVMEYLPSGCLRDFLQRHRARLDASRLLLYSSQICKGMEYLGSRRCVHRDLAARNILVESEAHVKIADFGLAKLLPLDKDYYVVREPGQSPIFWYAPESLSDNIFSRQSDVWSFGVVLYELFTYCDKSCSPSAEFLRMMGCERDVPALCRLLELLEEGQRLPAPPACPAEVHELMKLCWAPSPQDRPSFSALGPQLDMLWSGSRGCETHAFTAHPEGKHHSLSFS
In words: JAK3 enzymatic activity assay (Z'-LYTE Biochemical Kinase Assay, 2 hr preincubation at 4° C.). Conditions: cell free, 1% DMSO, read-out: JAK3 activity cell free (2 hr preincubation at (4° C.) Kj). As to the method:
The assays were performed according to manufacturer's protocols, except that prior to the kinase reaction they were pre-incubated for 2 hours at 4° C., in order to be able to assay for time-dependent inhibition.
In addition to the compound, each 10 μL JAK3 kinase reaction contained 0.43-1.89 ng JAK3 and 2 μM peptide substrate in 50 mM HEPES (pH 7.5), 0.01% BRIJ-35, 10 mM MgCl2 and 1 mM EGTA. The kinase reaction was allowed to proceed for 1 hour.

For experiment [3], the system named is Daudi cells. Description: Daudi CTG assay (Daudi proliferation, 72 hr, Cell Titer Glo). Conditions: Homo sapiens. Format: cell-based. The method, then: The compounds of the invention were tested on Daudi proliferation according to the procedure in Example 4 (for Daudi cells): Proliferation of RS4; 11, Ramos, Namalwa, RL, Molt-4 and Daudi cells. The compounds of the invention were tested on Daudi proliferation (72 hr), 3 fold dilution, and 9 points in duplicates. The top concentration for compounds of the invention was 10 uM; reference compound 7A top concentration was 10 uM; and Paclitaxel was 500 nM. Cell viability was determined using the Cell Titer Glo (CTG) reagent and detected by EnVision. EC50s were calculated by Prism 5.
The CellTiter-Glo™ Luminescent Cell Viability Assay uses ATP, a required co-factor of the luciferase reaction, as an indicator of metabolically active cells. The enzyme luciferase acts on luciferin in the presence of Mg^2+and ATP to produce oxyluciferin and to release energy in the form of luminescence. Since the luciferase reaction requires ATP, the luminescence produced is proportional to the amount of ATP present, an indicator of cellular metabolic activity.

[4] abbreviates: Daudi CTG assay, Daudi proliferation 72 hr, Cell Titer Glo, top concentration 10 uM (Paclitaxel 500 nM), read-out: IC50.

For `O=C(c1cc(-c2csc(NCc3ccco3)n2)c[nH]1)N1CCCC1` [5A], in experiment [1], the Emax was 68%. In the case of `O=C(c1cc(-c2csc(NCc3ccco3)n2)c[nH]1)N1CCCC1` [6A], the Ki in experiment [2] fell in the range of 1100 to 10000 nM. This compound also yielded an IC50 in experiment [1] of 1100 to 10000 nM. As to `Cc1csc(Cc2nc(-c3c[nH]c(C(=O)N4CCCC4)c3)cs2)n1` [8A], the Ki in experiment [2] is 1100 to 10000 nM.

Turning to `CCOc1ccc(-c2nc(-c3c[nH]c(C(=O)N4CCCC4)c3)cs2)cc1OC` [9A], the Ki in experiment [2] was 1100 to 10000 nM.

For the compound `COc1cccc(-c2nc(-c3c[nH]c(C(=O)N4CCCC4)c3)cs2)c1` [10A], the Ki in experiment [2] lay in the range of 1100 to 10000 nM. Take `O=C(c1cc(-c2csc(Nc3ccccc3)n2)c[nH]1)N1CCCC1` [12A]: in experiment [1], the IC50 lay in the range of 110 to 1000 nM and the Emax was found to be 81%. Taken in the same sequence, the figures for `O=C(c1cc(-c2csc(Nc3ccc(F)cc3)n2)c[nH]1)N1CCCC1` [13A] were 110 to 1000 nM and 78%. Consider `CC(=O)c1ccc(Nc2nc(-c3c[nH]c(C(=O)N4CCCC4)c3)cs2)cc1` [14A], for which, in experiment [2], the Ki lay in the range of 1100 to 10000 nM. The same measure, in the same setting: with `CN(c1ccccc1)c1nc(-c2c[nH]c(C(=O)N3CCCC3)c2)cs1` [15A] the figure was above 10000 nM; with `O=C(Nc1cccc(-c2nc(-c3c[nH]c(C(=O)N4CCCC4)c3)cs2)c1)c1ccccc1` [16A], above 10000 nM. `CN1CCN(CC(=O)Nc2cccc(-c3nc(-c4c[nH]c(C(=O)N5CCCC5)c4)cs3)c2)CC1` [17A]: in experiment [2], the Ki was above 10000 nM. The half-maximal inhibitory concentration (IC50) in experiment [1] lay in the range of 110 to 1000 nM. Turning to `O=C(c1cc(-c2csc(Nc3c(F)cc(F)cc3F)n2)c[nH]1)N1CCCC1` [18A], the Ki in experiment [2] was 1100 to 10000 nM.

Consider `O=C(c1cc(-c2csc(Nc3ccc(N4CCOCC4)cc3)n2)c[nH]1)N1CCCC1` [19A], for which the Ki in experiment [2] is 1100 to 10000 nM. As for `O=C(CN1CCCCC1)Nc1cccc(-c2nc(-c3c[nH]c(C(=O)N4CCCC4)c3)cs2)c1` [20A], in experiment [1], the IC50 lay in the range of 110 to 1000 nM and the Emax was 80.2%.

On to `CC(=O)Nc1cccc(-c2nc(-c3c[nH]c(C(=O)N4CCCC4)c3)cs2)c1` [21A], for which, in experiment [1], the IC50 is 110 to 1000 nM and the Emax came out at 84.4%. `O=C(CN1CCOCC1)Nc1ccc(-c2nc(-c3c[nH]c(C(=O)N4CCCC4)c3)cs2)cc1` [22A]: in experiment [1], the IC50 lay in the range of 110 to 1000 nM and the Emax turned out to be 100%. As to `CN(C)C(=O)c1cc(-c2csc(-c3cccc(NC(=O)CN4CCOCC4)c3)n2)c[nH]1` [23A], in experiment [1], the IC50 was 1100 to 10000 nM and the Emax came to 75.1%. Taken in the same sequence, the figures for `CN(C)C(=O)c1cc(-c2csc(-c3cccc(NC(=O)CN4CCCCC4)c3)n2)c[nH]1` [24A] were 1100 to 10000 nM and 74.7%. `CN1CCN(CC(=O)Nc2cccc(-c3nc(-c4c[nH]c(C(=O)N(C)C)c4)cs3)c2)CC1` [25A]: the IC50 in experiment [1] was above 10000 nM. For `CN(C)CC(=O)Nc1cccc(-c2nc(-c3c[nH]c(C(=O)N4CCCC4)c3)cs2)c1` [26A], in experiment [1], the IC50 is 110 to 1000 nM and the Emax was 74.6%.

For the compound `O=C(CN1CCOCC1)Nc1cccc(-c2nc(-c3c[nH]c(C(=O)NC4CC4)c3)cs2)c1` [27A], in experiment [1], the IC50 was in the range of 1100 to 10000 nM and the Emax is 100%.

Turning to `O=C(Nc1cccc(-c2nc(-c3c[nH]c(C(=O)N4CCCC4)c3)cs2)c1)N1CCOCC1` [28A], in experiment [1], the IC50 was in the range of 110 to 1000 nM and the Emax stood at 82.3%.

Take `NC(=O)c1cc(-c2csc(-c3cccc(NC(=O)CN4CCOCC4)c3)n2)c[nH]1` [29A]: the IC50 in experiment [1] and in experiment [3] (setting [4]) was above 10000 nM throughout. Consider `CCN(CC)C(=O)c1cc(-c2csc(-c3cccc(NC(=O)CN4CCOCC4)c3)n2)c[nH]1` [30A], for which, in experiment [1], the IC50 fell in the range of 1100 to 10000 nM and the Emax is 98.2%. In experiment [3] (setting [4]), the IC50 was in the range of 1100 to 10000 nM.

`O=C(CN1CCOCC1)Nc1ccc(-c2nc(-c3c[nH]c(C(=O)N4CCCCC4)c3)cs2)cc1` [31A]: in experiment [1], the IC50 fell in the range of 1100 to 10000 nM and the Emax was determined as 76.8%. In addition, in experiment [3] (setting [4]), the IC50 lay in the range of 1100 to 10000 nM.

On to `COc1ccc(-c2nc(-c3c[nH]c(C(=O)N4CCCC4)c3)cs2)cc1NC(=O)CN1CCOCC1` [32A], for which the IC50 in experiment [1] and in experiment [3] (setting [4]) was 110 to 1000 nM in each case. For the same compound, the Emax in experiment [1] was 71.7%.

Take `COc1ccc(-c2nc(-c3c[nH]c(C(=O)N4CCCC4)c3)cs2)cc1NC(=O)CN1CCCCC1` [33A]: in experiment [1], the IC50 fell in the range of 110 to 1000 nM and the Emax was 69.8%. In addition, the half-maximal inhibitory concentration (IC50) in experiment [3] (setting [4]) was in the range of 110 to 1000 nM. Regarding `CCN(CC)CC(=O)Nc1cc(-c2nc(-c3c[nH]c(C(=O)N4CCCC4)c3)cs2)ccc1OC` [34A], in experiment [1], the IC50 lay within 110 to 1000 nM and the Emax was 79.7%. The IC50 in experiment [3] (setting [4]) is 110 to 1000 nM. On to `O=C(CN1CCOCC1)Nc1cc(-c2nc(-c3c[nH]c(C(=O)N4CCCC4)c3)cs2)ccc1F` [35A], for which the IC50 in experiment [1] and in experiment [3] (setting [4]) was 110 to 1000 nM in each case. The Emax in experiment [1] was 78.9%.

`O=C(c1cc(-c2csc(Nc3cccc(C(F)(F)F)c3)n2)c[nH]1)N1CCCC1` [39A]: the Ki in experiment [2] fell in the range of 1100 to 10000 nM.

Turning to `O=C(c1cc(-c2csc(NC3CCCC3)n2)c[nH]1)N1CCCC1` [45A], the Ki in experiment [2] lay within 1100 to 10000 nM.

`O=C(c1cc(-c2csc(NCc3ccc(F)cc3)n2)c[nH]1)N1CCCC1` [47A]: the Ki in experiment [2] is 1100 to 10000 nM. In the case of `O=C(c1cc(-c2csc(-c3ccccn3)n2)c[nH]1)N1CCCC1` [53A], in experiment [1], the IC50 lay in the range of 110 to 1000 nM and the Emax amounted to 72%.

Consider `O=C(c1cc(-c2csc(-c3ccc(Cl)cc3)n2)c[nH]1)N1CCCC1` [61A], for which, in experiment [1], the IC50 was 110 to 1000 nM and the Emax is 60%. Taken in the same sequence, the figures for `Cc1ccc(-c2nc(-c3c[nH]c(C(=O)N4CCCC4)c3)cs2)c(C)c1` [63A] were 110 to 1000 nM and 63%. Turning to `Cc1ccccc1-c1nc(-c2c[nH]c(C(=O)N3CCCC3)c2)cs1` [64A], the Ki in experiment [2] lay within 1100 to 10000 nM. Regarding `CC(=O)O[C@H]1C(=O)[C@@]2(C)[C@H]([C@H](OC(=O)c3ccccc3)[C@]3(O)C[C@H](OC(=O)[C@H](O)[C@@H](NC(=O)c4ccccc4)c4ccccc4)C(C)=C1C3(C)C)[C@]1(OC(C)=O)CO[C@@H]1C[C@@H]2O` [Paclitaxel, paclitaxel, reference compound], the IC50 in experiment [3] (Daudi, read-out: Daudi CTG assay IC50, historical data) turned out to be 4.69 nM; in experiment [3] (Daudi proliferation 72 hr, control compounds, read-out: Daudi CTG assay control IC50), 4.5 nM.
